From patent publication US6685960B1, “Solid lipidic nanospheres suitable to a fast internalization into cells” (priority 1998, dated 2004) come the findings set out here.

The subject of test [1] is cells of the mastocarcinoma, MCF7. The experiment in a line: Inhibition of cell proliferation, MCF7 cells counted by Cell Counter. The format is cell-based. The following applies: Homo sapiens, MCF7, 144 h, read-out: inhibition of the cell growth. Here is the method: The above described experiment has been repeated on cells of the mastocarcinoma, identified with the MCF7 abbreviation, using as insemination medium DMEM/F12 (Dulbecco's modified Eagle's medium, Sigma Chemical Co., St. Louis, Mo.) with 2% FCS.
Said cells have been placed in 12 well plates, where they have been left to adhere for 24 hours in the above described nutrition medium.
The nutrient medium has been then removed and substituted with the experimental medium consisting of DMEM/F12 with 10% FCS added with increasing concentrations of sodium butyrate, or of cholesteryl butyrate in form of nanospheres prepared according to the above reported example 2. The cells have been kept for 6 days in contact with such experimental medium.
The antiproliferative effect of the cholesteryl butyrate nanospheres on the cell growth has been estimated counting the cells with a Cell Counter.

In test [2] the test system is NIH-H460 cells of lung carcinoma. Nature of the test: Inhibition of cell proliferation, NIH-H460 cells counted by Cell Counter. The format is cell-based. Here is the method:
The experimentation has been carried out on NIH-H460 cells of lung carcinoma (D. N. Carney et al., Cancer Res., 45, 2913-2923, 1985) grown in monolayer in the RPMI 1640 nutrient medium (Bio Whittaker, Verviers, Belgium) added with 10% by volume with respect to the total volume of FCS (Fetal Calf Serum), at the temperature of 37° C., in a CO2 atmosphere humidified at 5%.
The cells have been put in 24 wells plates, using as nutrient medium RPMI 1640 added with 10% of FCS, and left to adhere for 24 hours. The insemination medium has been then removed and substituted with the experimental medium consisting of RPMI 1640 with 10% of FCS and increasing concentrations of sodium butyrate, or of cholesteryl butyrate in form of nanospheres prepared as in the above reported example 1. The cells have been kept for 6 days in contact with such experimental medium.
The effect of the sodium butyrate and of cholesteryl butyrate on the cell growth has been estimated counting the cells by a Cell Counter.

As a reminder, the inhibition is the drop in the measured response relative to a control, in per cent.

With `CCCC(=O)[O-].[Na+]` [sodium butyrate], the inhibition at 200 µM in test [1] came to 40%. Further, the inhibition at 210 µM in test [2] (NIH-H460, 144 h, read-out: inhibition of the cell growth) stood at 50%. Turning to `CC(C)CCC[C@@H](C)[C@H]1CC[C@H]2[C@@H]3CC=C4C[C@@H](O)CC[C@]4(C)[C@H]3CC[C@]12C` [cholesterol], in test [2] (comparison test, additive of the experimental medium RPMI 1640 with 10% FCS), the “effect on the cell proliferation” value is listed as “does not affect the cell proliferation in any way”.
